# Values of other authors as cited in US12594266B2, “Triterpenoid antifungals for the treatment or prevention of Pneumocystis spp. pneumonia” (priority 2019, dated 2026).
# Like-named read-outs stand apart in the source and are kept apart here. *1 amine or outer side, *2 acyl side, *3 side chain or, on linkers, in order; H or OH if unused. Where a SMILES comes first, the peptide text is derived from it. Bridges are numbered along the chain shown (N, C = ends). [ ]: non-standard residue; d: D form. The star is where a group is joined. hTyr(3S-OH,4S-OH,3'-OSO3H) = N[C@H](C(=O)O)[C@H](O)[C@@H](O)c1ccc(O)c(OS(=O)(=O)O)c1; Orn(4R-OH,5R-OH) = O=C([C@H](C[C@@H](O)[C@@H](O)N[*:3])N[*:1])[*:2]; Pro(3S-OH,4S-Me) = C[C@H]1CN[C@H](C(=O)O)[C@H]1O; X1 = CCCCCOc1ccc(-c2cc(-c3ccc(C(=O)*)cc3)no2)cc1; Gln(3R-OH) = NC(=O)C[C@@H](O)[C@H](N)C(=O)O; Hyp = O=C(O)[C@@H]1C[C@@H](O)CN1
# Experiments:
# [1] = system: Pneumocystis spp.; details: cited from earlier work; for relative effectiveness among echinocandins: murine PCP
# [2] = total radioactivity, 15 mg/kg oral, male pigmented Long-Evans rats, cited from earlier work
smiles,measurement,setting,value
"CCCCCOc1ccc(-c2cc(-c3ccc(C(=O)N[C@H]4C[C@@H](O)[C@@H](O)NC(=O)[C@@H]5[C@@H](O)[C@@H](C)CN5C(=O)[C@H]([C@H](O)CC(N)=O)NC(=O)[C@H]([C@H](O)[C@@H](O)c5ccc(O)c(OS(=O)(=O)O)c5)NC(=O)[C@@H]5C[C@@H](O)CN5C(=O)[C@H]([C@@H](C)O)NC4=O)cc3)no2)cc1 [micafungin] (X1-[Orn(4R-OH,5R-OH)]T[Hyp][hTyr(3S-OH,4S-OH,3'-OSO3H)][Gln(3R-OH)][Pro(3S-OH,4S-Me)]; lactam 1-C)",trophic burden versus untreated control mice,"[1]; any dose, intraperitoneal, 3 weeks",no significant reduction
same,relative effectiveness among echinocandins,[1],least effective
CC(C)[C@@H](C)[C@@]1(C)CC[C@]2(C)[C@H]3CC[C@@H]4[C@@]5(COC[C@]4(C)[C@@H](OC[C@](C)(N)C(C)(C)C)[C@H](n4ncnc4-c4ccncc4)C5)C3=CC[C@@]2(C)[C@@H]1C(=O)O [[^14C]-SCY-078],AUCall,[2]; Adrenal gland,321.126 μg equiv*h/g
same,Tissue:Blood AUC Ratio,[2]; Adrenal gland,48.431
same,AUCall,[2]; Blood (cardiac),6.631 μg equiv*h/g
same,Tissue:Blood AUC Ratio,[2]; Blood (cardiac),1.000
same,AUCall,[2]; Bone marrow (femur),238.388 μg equiv*h/g
same,Tissue:Blood AUC Ratio,[2]; Bone marrow (femur),35.953
same,AUCall,[2]; Bone,9.022 μg equiv*h/g
same,Tissue:Blood AUC Ratio,[2]; Bone,1.361
same,AUCall,[2]; Brain (cerebrum),0.727 μg equiv*h/g
same,Tissue:Blood AUC Ratio,[2]; Brain (cerebrum),0.110
same,AUCall,[2]; Cecum,83.542 μg equiv*h/g
same,Tissue:Blood AUC Ratio,[2]; Cecum,12.600
same,AUCall,[2]; Epididymis,75.355 μg equiv*h/g
same,Tissue:Blood AUC Ratio,[2]; Epididymis,11.365
same,AUCall,[2]; Esophagus,41.430 μg equiv*h/g
same,Tissue:Blood AUC Ratio,[2]; Esophagus,6.248
same,AUCall,[2]; Exorbital gland,523.676 μg equiv*h/g
same,Tissue:Blood AUC Ratio,[2]; Exorbital gland,78.980
same,AUCall,[2]; Eye (lens),0.084 μg equiv*h/g
same,Tissue:Blood AUC Ratio,[2]; Eye (lens),0.013
same,AUCall,[2]; Eye (uvea),777.035 μg equiv*h/g
same,Tissue:Blood AUC Ratio,[2]; Eye (uvea),117.191
same,AUCall,[2]; Heart (myocardium),66.558 μg equiv*h/g
same,Tissue:Blood AUC Ratio,[2]; Heart (myocardium),10.038
same,AUCall,[2]; Kidney (cortex),165.880 μg equiv*h/g
same,Tissue:Blood AUC Ratio,[2]; Kidney (cortex),25.018
same,AUCall,[2]; Kidney (medulla),136.610 μg equiv*h/g
same,Tissue:Blood AUC Ratio,[2]; Kidney (medulla),20.603
same,AUCall,[2]; Large intestine,57.682 μg equiv*h/g
same,Tissue:Blood AUC Ratio,[2]; Large intestine,8.727
same,AUCall,[2]; Liver,374.517 μg equiv*h/g
same,Tissue:Blood AUC Ratio,[2]; Liver,56.484
same,AUCall,[2]; Lung,175.593 μg equiv*h/g
same,Tissue:Blood AUC Ratio,[2]; Lung,26.483
same,AUCall,[2]; Lymph node,251.036 μg equiv*h/g
same,Tissue:Blood AUC Ratio,[2]; Lymph node,37.861
same,AUCall,[2]; Oral mucosa,36.782 μg equiv*h/g
same,Tissue:Blood AUC Ratio,[2]; Oral mucosa,5.547
same,AUCall,[2]; Pancreas,110.455 μg equiv*h/g
same,Tissue:Blood AUC Ratio,[2]; Pancreas,16.659
same,AUCall,[2]; Pituitary,640-809 μg equiv*h/g
same,Tissue:Blood AUC Ratio,[2]; Pituitary,96.645
same,AUCall,[2]; Prostate gland,61.301 μg equiv*h/g
same,Tissue:Blood AUC Ratio,[2]; Prostate gland,9.245
same,AUCall,[2]; Salivary gland,149.193 μg equiv*h/g
same,Tissue:Blood AUC Ratio,[2]; Salivary gland,22.501
same,AUCall,[2]; Seminal vesicle,26.827 μg equiv*h/g
same,Tissue:Blood AUC Ratio,[2]; Seminal vesicle,4.046
same,AUCall,[2]; Skeletal muscle,28.304 μg equiv*h/g
same,Tissue:Blood AUC Ratio,[2]; Skeletal muscle,4.269
same,AUCall,[2]; Skin (non-pigmented),74.884 μg equiv*h/g
same,Tissue:Blood AUC Ratio,[2]; Skin (non-pigmented),11.294
same,AUCall,[2]; Skin (pigmented),110.249 μg equiv*h/g
same,Tissue:Blood AUC Ratio,[2]; Skin (pigmented),16.627
same,AUCall,[2]; Small intestine,141.607 μg equiv*h/g
same,Tissue:Blood AUC Ratio,[2]; Small intestine,21.357
same,AUCall,[2]; Spleen,507.638 μg equiv*h/g
same,Tissue:Blood AUC Ratio,[2]; Spleen,75.561
same,AUCall,[2]; Stomach (gastric mucosa),181.074 μg equiv*h/g
same,Tissue:Blood AUC Ratio,[2]; Stomach (gastric mucosa),27.309
same,AUCall,[2]; Testis,64.972 μg equiv*h/g
same,Tissue:Blood AUC Ratio,[2]; Testis,9.799
same,AUCall,[2]; Thymus,195.608 μg equiv*h/g
same,Tissue:Blood AUC Ratio,[2]; Thymus,29.501
same,AUCall,[2]; Thyroid,291.187 μg equiv*h/g
same,Tissue:Blood AUC Ratio,[2]; Thyroid,43.916
same,AUCall,[2]; Urinary bladder,45.955 μg equiv*h/g
same,Tissue:Blood AUC Ratio,[2]; Urinary bladder,6.931
CC[C@H](C)C[C@H](C)CCCCCCCCC(=O)N[C@H]1C[C@@H](O)[C@@H](NCCN)NC(=O)[C@@H]2[C@@H](O)CCN2C(=O)[C@H]([C@H](O)CCN)NC(=O)[C@H]([C@H](O)[C@@H](O)c2ccc(O)cc2)NC(=O)[C@@H]2C[C@@H](O)CN2C(=O)[C@H]([C@@H](C)O)NC1=O [caspofungin],relative effectiveness among echinocandins,[1],most effective
